Test results taken from publication PMC12395000 (RSC Advances, 2025).
Values belong to the compound of their own block, whether it stands above or below them.

What was measured:
HCT-116 cancer cells = assay: MTT cytotoxicity assay, HCT-116; assay type: cell-based; details: Homo sapiens, HCT-116, 48 h, read-out: IC50 ± SD
WI-38 cells = assay: MTT cytotoxicity assay, normal WI-38; assay type: cell-based; details: Homo sapiens, WI-38, 48 h, read-out: IC50 ± SD
EGFR = EGFR (Homo sapiens, UniProt P00533); assay: EGFR kinase inhibitory assay; assay type: biochemical; details: for IC50: EGFR IC50 ± SD
HCT-116 cells [1] = assay: Annexin V/PI staining flow cytometry; assay type: cell-based
HCT-116 cells [2] = assay: DNA-content cell cycle analysis by flow cytometry; assay type: cell-based; details: HCT-116, IC50 = 1.34 μM, 48 h; control 54.19%
[3] = system: P53, Bax, caspase-3, caspase-8, caspase-9, Bcl-2 genes in HCT-116 cells; assay: RT-PCR gene expression of apoptosis-related genes; assay type: cell-based; details: HCT-116, IC50 = 1.34 μM, 48 h
[4] = three replicates, concentrations 0.001-10 μM

EGFR, sequence (P00533 25-1210): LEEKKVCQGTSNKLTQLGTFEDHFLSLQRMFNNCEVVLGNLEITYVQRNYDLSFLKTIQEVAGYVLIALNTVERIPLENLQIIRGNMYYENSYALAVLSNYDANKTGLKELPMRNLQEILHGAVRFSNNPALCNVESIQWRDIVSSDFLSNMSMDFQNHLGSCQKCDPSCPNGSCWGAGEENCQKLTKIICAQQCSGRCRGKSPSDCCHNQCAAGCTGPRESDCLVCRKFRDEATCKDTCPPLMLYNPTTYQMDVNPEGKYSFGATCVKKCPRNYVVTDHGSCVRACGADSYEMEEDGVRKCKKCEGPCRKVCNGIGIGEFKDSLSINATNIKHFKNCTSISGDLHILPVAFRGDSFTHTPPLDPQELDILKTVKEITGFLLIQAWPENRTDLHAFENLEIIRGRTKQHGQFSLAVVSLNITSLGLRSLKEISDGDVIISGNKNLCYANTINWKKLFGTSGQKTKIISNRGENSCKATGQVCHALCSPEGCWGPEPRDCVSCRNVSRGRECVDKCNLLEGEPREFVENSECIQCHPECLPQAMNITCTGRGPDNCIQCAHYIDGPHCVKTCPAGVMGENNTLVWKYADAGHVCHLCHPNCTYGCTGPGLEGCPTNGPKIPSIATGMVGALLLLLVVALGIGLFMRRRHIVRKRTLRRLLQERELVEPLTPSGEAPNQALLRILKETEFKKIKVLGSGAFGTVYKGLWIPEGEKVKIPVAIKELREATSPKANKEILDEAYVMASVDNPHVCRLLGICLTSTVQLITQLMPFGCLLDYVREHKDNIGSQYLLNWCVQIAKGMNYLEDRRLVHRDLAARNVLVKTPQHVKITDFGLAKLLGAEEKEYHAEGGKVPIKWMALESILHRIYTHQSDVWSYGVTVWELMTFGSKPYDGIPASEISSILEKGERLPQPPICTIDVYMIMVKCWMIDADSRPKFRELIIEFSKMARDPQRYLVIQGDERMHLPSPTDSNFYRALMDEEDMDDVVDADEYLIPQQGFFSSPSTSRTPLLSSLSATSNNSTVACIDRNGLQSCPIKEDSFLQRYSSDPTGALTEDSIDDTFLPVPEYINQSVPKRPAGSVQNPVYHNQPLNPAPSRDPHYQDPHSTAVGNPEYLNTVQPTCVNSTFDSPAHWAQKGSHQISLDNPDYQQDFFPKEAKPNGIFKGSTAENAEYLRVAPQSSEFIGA

Compound: C#Cc1cccc(Nc2ncnc3cc(OCCOC)c(OCCOC)cc23)c1 [Erlotinib, reference compound]
IC50 (HCT-116 cancer cells): 1320 ± 200 nM
IC50 (WI-38 cells): ≥ 50000 nM

Compound: CC1=C(C(=O)Nc2cccnc2)C(c2ccc3ccc4cccc5ccc2c3c45)NC(=S)N1 (stereo not drawn) [Compound 4c, 6-Methyl-4-(pyren-1-yl)-N-(pyridin-3-yl)-2-thioxo-1,2,3,4-tetrahydropyrimidine-5-carboxamide]
IC50 (HCT-116 cancer cells): 1900 ± 300 nM
IC50 (WI-38 cells): ≥ 50000 nM
IC50 (EGFR; [4]): 94.9 ± 4.95 nM

Second part, led by results:

IC50 (EGFR; [4]): 77 ± 4.36 nM
Compound: CC1=C(C(=O)Nc2ccccn2)C(c2ccc3ccc4cccc5ccc2c3c45)NC(=S)N1 (stereo not drawn) [Compound 4b, 6-Methyl-4-(pyren-1-yl)-N-(pyridin-2-yl)-2-thioxo-1,2,3,4-tetrahydropyrimidine-5-carboxamide]
IC50 (HCT-116 cancer cells): 1340 ± 400 nM
IC50 (WI-38 cells): ≥ 50000 nM
apoptosis induction versus control (HCT-116 cells [1]; HCT-116): 30.2 fold
necrosis (HCT-116 cells [1]; HCT-116, IC50 = 1.34 μM, 48 h, Q1, control 2.13%): 5.58%
late apoptosis (HCT-116 cells [1]; HCT-116, IC50 = 1.34 μM, 48 h, Q2): 7.36%
early apoptosis (HCT-116 cells [1]; HCT-116, IC50 = 1.34 μM, 48 h, Q4): 19.24%
cells that died by apoptosis (total) (HCT-116 cells [1]; HCT-116, treated at IC50 = 1.34 μM, 48 h, control 0.88%): 26.60%
cell population at G1-phase (%DIP G1) (HCT-116 cells [2]): 87.55%
Bax gene expression fold change [3]: 3.54 fold change
P53 gene expression fold change [3]: 6.85 fold change
caspase-3 gene expression fold change [3]: 8.37 fold change
caspase-8 gene expression fold change [3]: 2.3 fold change
caspase-9 gene expression fold change [3]: 6.80 fold change
Bcl-2 gene expression fold change ([3]; antiapoptotic gene, decreased): 0.37 fold change

IC50 (EGFR; [4]): 104 ± 5.67 nM
EGFR inhibition percentage (EGFR; concentration not given): 82.3%
Compound: CC1=C(C(=O)Nc2ccccc2)C(c2ccc3ccc4cccc5ccc2c3c45)NC(=S)N1 (stereo not drawn) [Compound 4a, 6-Methyl-N-phenyl-4-(pyren-1-yl)-2-thioxo-1,2,3,4-tetrahydropyrimidine-5-carboxamide]
IC50 (HCT-116 cancer cells): 4800 nM
IC50 (WI-38 cells): ≥ 50000 nM

EGFR IC50 ± SD (EGFR; [4]): non-detected
Compound: Cc1[nH]c(=O)nc2c1c(=O)oc1ccc3ccccc3c12 [Compound 16, 4-Methyl-2H-benzo[5,6]chromeno[4,3-d]pyrimidine-2,5(3H)-dione]
IC50 (HCT-116 cancer cells): 6460 nM
IC50 (WI-38 cells): ≥ 50000 nM
